Patent US20230271950A1, “ANTIBACTERIAL PICOLINAMIDE COMPOUNDS” (University of Notre Dame Du Lac, priority 2020, published 2023)
Where two headings read alike, the source gives them in different places.

Key:
Lactobacillus reuteri = assay: MIC against gut bacterium Lactobacillus reuteri; format: cell-based
S. aureus ATCC29213 = assay: MIC against MSSA; format: cell-based, Staphylococcus aureus; settings: Staphylococcus aureus
Lactobacillus gasseri = assay: MIC against gut bacterium Lactobacillus gasseri; format: cell-based
C. difficile = assay: MIC by broth microdilution against C. difficile strains; format: cell-based, Clostridioides difficile

Compound: O=C(O)c1ccc2oc(NC(=O)c3cc(Oc4cccc(OC(F)(F)F)c4)ccn3)nc2c1 [Compound 1, Sodium 2-(4-(3-(trifluoromethoxy)phenoxy)picolinamido)benzo[d]oxazole-5-carboxylate]
- MIC (Lactobacillus reuteri; Lactobacillus reuteri strain HM-102, Table 7): 4 µg/mL
- MIC (Lactobacillus reuteri; Limosilactobacillus reuteri, Lactobacillus reuter strain HM-102, Table 1, read-out: MIC): 4 µg/mL
- MIC (S. aureus ATCC29213; MSSA ATCC 29213, Table 10, unit inferred, read-out: Activity (MIC) against S. aureus): 64 µg/mL
- MIC (S. aureus ATCC29213; S. aureus ATCC29213, Table 1, read-out: MIC): 64 µg/mL
- MIC (Lactobacillus gasseri; Lactobacillus gasseri strain HM-644, Table 7): >16 µg/mL
- MIC (Lactobacillus gasseri; Lactobacillus gasseri, Lactobacillus gasser strain HM-644, Table 1, read-out: MIC): > 16 µg/mL
- MIC (C. difficile; C. difficile 23691 (VR, vancomycin-resistant), Table 7): 0.125 µg/mL
- MIC (C. difficile; C. difficile 23691, Table 9): 0.125 µg/mL
- MIC (C. difficile; C. difficile 24923 (VR, vancomycin-resistant), Table 7): 0.125 µg/mL
- MIC (C. difficile; C. difficile 24923, Table 9): 0.125 µg/mL
- MIC (C. difficile; C. difficile 27081 (FR, fidaxomicin-resistant), Table 7): 0.125 µg/mL
- MIC (C. difficile; C. difficile 27081, Table 9): 0.125 µg/mL
- MIC (C. difficile; C. difficile 27173 (MR, metronidazole-resistant), Table 7): 0.125 µg/mL
- MIC (C. difficile; C. difficile 27173, Table 9): 0.125 µg/mL
- MIC (C. difficile; C. difficile ATCC43255, Table 7): 0.125 µg/mL
- MIC (C. difficile; C. difficile ATCC43255, Table 9): 0.125 µg/mL
- MIC (C. difficile; C. difficile ATCC43598, Table 9): 0.125 µg/mL
- MIC (C. difficile; C. difficile BAA-1801, Table 9): 0.125 µg/mL
- MIC (C. difficile; C. difficile BAA-1804, Table 9): 0.125 µg/mL
- MIC (C. difficile; C. difficile BAA-1812, Table 9): 0.125 µg/mL
- MIC (C. difficile; C. difficile BAA-1814, Table 9): 0.125 µg/mL
- MIC (C. difficile; C. difficile BAA-1870, Table 7): 0.125 µg/mL
- MIC (C. difficile; C. difficile BAA-1870, Table 9): 0.125 µg/mL
- MIC (C. difficile; C. difficile HM-89, Table 9): 0.125 µg/mL
- MIC (C. difficile; C. difficile HM-745, Table 9): 0.125 µg/mL
- MIC (C. difficile; C. difficile HM-746, Table 9): 0.125 µg/mL
- MIC (C. difficile; C. difficile HM-747, Table 9): 0.125 µg/mL
- MIC (C. difficile; C. difficile NR49292, Table 7): 0.125 µg/mL
- MIC (C. difficile; C. difficile NR49292, Table 9): 0.125 µg/mL
- MIC (C. difficile; C. difficile NR49310, Table 7): 0.125 µg/mL
- MIC (C. difficile; C. difficile NR49310, Table 9): 0.125 µg/mL
- MIC (C. difficile; C. difficile NR-13427, Table 9): 0.125 µg/mL
- MIC (C. difficile; C. difficile NR-13428, Table 9): 0.125 µg/mL
- MIC (C. difficile; C. difficile NR-13430, Table 9): 0.125 µg/mL
- MIC (C. difficile; C. difficile NR-13434, Table 9): 0.125 µg/mL
- MIC (C. difficile; C. difficile NR-13435, Table 9): 0.125 µg/mL
- MIC (C. difficile; C. difficile NR-13436, Table 9): 0.125 µg/mL
- MIC (C. difficile; C. difficile NR-13437, Table 9): 0.125 µg/mL
- MIC (C. difficile; C. difficile NR-13438, Table 9): 0.125 µg/mL
- MIC (C. difficile; C. difficile NR-13553, Table 9): 0.125 µg/mL
- MIC (C. difficile; C. difficile NR-32882, Table 9): 0.125 µg/mL
- MIC (C. difficile; C. difficile NR-32883, Table 9): 0.125 µg/mL
- MIC (C. difficile; C. difficile NR-32884, Table 9): 0.125 µg/mL
- MIC (C. difficile; C. difficile NR-32886, Table 9): 0.125 µg/mL
- MIC (C. difficile; C. difficile NR-32887, Table 9): 0.125 µg/mL
- MIC (C. difficile; C. difficile NR-32888, Table 9): 0.125 µg/mL
- MIC (C. difficile; C. difficile NR-32889, Table 9): 0.125 µg/mL
- MIC (C. difficile; C. difficile NR-32892, Table 9): 0.125 µg/mL
- MIC (C. difficile; C. difficile NR-32897, Table 9): 0.125 µg/mL
- MIC (C. difficile; C. difficile NR-32900, Table 9): 0.125 µg/mL
- MIC (C. difficile; C. difficile NR-32904, Table 9): 0.125 µg/mL
- MIC (C. difficile; C. difficile NR-49277, Table 9): 0.125 µg/mL
- MIC (C. difficile; C. difficile NR-49278, Table 9): 0.125 µg/mL
- MIC (C. difficile; C. difficile NR-49279, Table 9): 0.125 µg/mL
- MIC (C. difficile; C. difficile NR-49280, Table 9): 0.125 µg/mL
- MIC (C. difficile; C. difficile NR-49282, Table 9): 0.125 µg/mL
- MIC (C. difficile; C. difficile NR-49286, Table 9): 0.125 µg/mL
- MIC (C. difficile; C. difficile NR-49288, Table 9): 0.125 µg/mL
- MIC (C. difficile; C. difficile NR-49290, Table 9): 0.125 µg/mL
- MIC (C. difficile; C. difficile NR-49291, Table 9): 0.125 µg/mL
- MIC (C. difficile; C. difficile NR-49293, Table 9): 0.125 µg/mL
- MIC (C. difficile; C. difficile NR-49295, Table 9): 0.125 µg/mL
- MIC (C. difficile; C. difficile NR-49296, Table 9): 0.125 µg/mL
- MIC (C. difficile; C. difficile NR-49299, Table 9): 0.125 µg/mL
- MIC (C. difficile; C. difficile NR-49300, Table 9): 0.125 µg/mL
- MIC (C. difficile; C. difficile NR-49301, Table 9): 0.125 µg/mL
- MIC (C. difficile; C. difficile NR-49303, Table 9): 0.125 µg/mL
- MIC (C. difficile; C. difficile NR-49307, Table 9): 0.125 µg/mL
- MIC (C. difficile; C. difficile NR-49308, Table 9): 0.125 µg/mL
- MIC (C. difficile; C. difficile NR-49309, Table 9): 0.125 µg/mL
- MIC (C. difficile; C. difficile NR-49312, Table 9): 0.125 µg/mL
- MIC (C. difficile; C. difficile NR-49314, Table 9): 0.125 µg/mL
- MIC (C. difficile; C. difficile NR-49315, Table 9): 0.125 µg/mL
- MIC (C. difficile; C. difficile NR-49316, Table 9): 0.125 µg/mL
- MIC (C. difficile; C. difficile NR-49317, Table 9): 0.125 µg/mL
- MIC (C. difficile; C. difficile NR-49319, Table 9): 0.125 µg/mL
- MIC (C. difficile; C. difficile NR-49320, Table 9): 0.125 µg/mL
- MIC (C. difficile; C. difficile NR-49323, Table 9): 0.125 µg/mL
